The source of these data is US6809085B1, “Adherent N,O-Carboxymethylchitosan drug delivery devices for moist tissue and methods of their use” (Chitogenics, Inc., priority 1999, dated 2004).

Counter-ions that a name gives are not always drawn. Like-named read-outs stand apart in the source and are kept apart here.

This series is classed as in vitro ADME, rabbit. The method, then: Previously harvested pieces of rabbit large bowel (surface area 1.767 cm^2) were mounted in an Improved Franz Diffusion Cell containing 0.9% saline (13ml) as the receptor medium. The vaginal cream of Example 3 (1.0 g) was applied directly to the rabbit tissue; the experiments were performed in triplicate.
Aliquots of 1.0 ml (which were replaced with fresh saline solution) were withdrawn from the receptor chamber at 1, 3, 6, 20, 24, 48 hours. LN in samples was quantified using high performance liquid chromatography (Hewlett Packard, model 1090,series II, fitted with Hypersil C18, 5 μm, 25 cm×4.6 mm column, a UV detector set at 241 nm and an acetonitrile(80%)-water(20%) mobile phase).
Accurately weighed portions of the LN-vaginal cream as well as the cream recovered from the diffusion cells were extracted with 20 ml methanol for 16 hr on a wrist-action shaker and analyzed. […] The replicate results along with an average are plotted.
The permeation studies were conducted as described in Example 12 except that the HPLC analysis was modified; a Spectra Physics, Model SP8800, fitted with Alltima phenyl, 5 micron, 15 cm×4.6 mm column, and a UV detector set at 223 nm was used with an acetonitrile (40%)-0.1% phosphoric acid mobile phase. […]

Regarding `CC(=O)O.CC(=O)O.NC(=N\CCCCCC/N=C(N)/N=C(\N)Nc1ccc(Cl)cc1)/N=C(\N)Nc1ccc(Cl)cc1` [chlorhexidine diacetate], the “average permeation rate through the mucosal tissue” value is recorded as 160.8 μg/cm^2/hr.
Consider `CN(C)CCC(c1ccc(Cl)cc1)c1ccccn1` (stereo not shown) [chlorpheniramine maleate], for which the “average permeation rate through the mucosal tissue” value is, setting by setting: (rabbit, 48 h, 5 mg per pellet) 97.3 μg/cm^2/hr; (rabbit, 48 h, 10 mg per pellet) 182 μg/cm^2/hr.
Regarding `C#C[C@]1(O)CC[C@H]2[C@@H]3CCC4=CC(=O)CC[C@@H]4[C@H]3CC[C@@]21CC` [levonorgestrel], the “concentration of LN in the cream recovered following the permeation study” value came to 3.101 ± 0.315 mg/g. In addition, for the setting “rabbit, 48 h, 3 mg/g”, the “amount of levonorgestrel released through normal tissue” value is listed as “less than 0.5%” and the “permeation rate of hormone that diffused through the tissue from the cream” value worked out at 0.163±0.010 μg/cm^2/hr.
Turning to `CC(C)(C)NC[C@H](O)COc1nsnc1N1CCOCC1` [timolol maleate], the “average permeation rate through the mucosal tissue” value (rabbit, 24 h) is listed as 103.8 μg/cm^2/hr.
